{
  "source": "patent US10149907B2",
  "about": "“Combinations of a photosensitizer with a hydrogen sulfide donor, thioredoxin inhibitor or nitroxide for use in photodynamic therapy” (UNIVERSITY OF EXETER, priority 2014, dated 2018)",
  "key": {"A431 cells [1]": {"test_system": "A431 cells", "test": "Photodynamic cell killing in the presence of inhibitors of the thioredoxin antioxidant system or nitroxides (annexin V-FITC/propidium iodide flow cytometry)", "type": "cell-based, human"}, "A431 cells [2]": {"test_system": "A431 cells", "how_it_was_run": "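In the PDT set-up, cells held at 2% O2 got 1 mM MAL with or without compound for 3 h, then 3 h recovery under 2% O2. Compound-alone cytotoxicity used cells seeded at 3×10^5/well for 24 h, treated for the relevant time.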"}, "A431 cells [3]": {"test_system": "A431 cells", "test": "Mitochondrial reactive oxygen species generation during photodynamic irradiation, MitoSOX flow cytometry", "type": "cell-based, human", "conditions": "MAL 1 mM + co-treatment 10 μM, 3 hours, irradiated", "how_it_was_run": "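A431 cells received AP39-C10 (10, 100 or 1000 nM) for 5 h, MAL (1 mM) for 3 h and MitoSOX (2.5 μM) for 1 h, then were irradiated for 5 min (630 nm, 25 J/cm^2). Mitochondrial oxidant production was read immediately as MitoSOX fluorescence by flow cytometry and expressed as percent of untreated controls.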"}, "thioredoxin reductase": {"target": "T1, thioredoxin reductase (Homo sapiens, UniProt Q16881)", "T1 sequence (Q16881 151-649 limits assumed)": "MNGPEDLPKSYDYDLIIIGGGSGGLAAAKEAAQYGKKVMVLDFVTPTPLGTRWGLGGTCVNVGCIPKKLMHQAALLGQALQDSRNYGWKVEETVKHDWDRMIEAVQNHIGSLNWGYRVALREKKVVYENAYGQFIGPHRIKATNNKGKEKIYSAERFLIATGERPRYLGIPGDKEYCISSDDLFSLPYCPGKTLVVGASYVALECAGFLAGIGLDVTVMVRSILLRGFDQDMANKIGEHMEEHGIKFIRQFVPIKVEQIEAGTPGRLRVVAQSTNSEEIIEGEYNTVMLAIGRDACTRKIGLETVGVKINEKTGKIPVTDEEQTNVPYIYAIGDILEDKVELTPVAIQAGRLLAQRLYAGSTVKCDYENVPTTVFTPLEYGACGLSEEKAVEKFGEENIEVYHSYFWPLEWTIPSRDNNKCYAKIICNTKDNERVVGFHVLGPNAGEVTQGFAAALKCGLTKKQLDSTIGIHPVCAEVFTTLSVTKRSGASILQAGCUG", "conditions": "cited from earlier work"}},
  "note": "Values joined by “and” are separate entries in the source; they are usually repeats but may differ in a detail not shown here. Identical values can stand only once. Like-named read-outs stand apart in the source and are kept apart here.",
  "data": [
    {"smiles": "O=[N+]([O-])c1ccc(Cl)c([N+](=O)[O-])c1", "note": "[DNCB, 1-chloro-2,4-dinitrobenzene]", "values": [
      {"measurement": "modes of cell death", "setting": "A431 cells [1]; 1 mM MAL + DNCB 10 μM or auranofin 100 nM + irradiation, compared to MAL and irradiation, FIG. 10", "result": "primarily increased necrotic cell death"},
      {"measurement": "cell death", "setting": "A431 cells [1]; 1 mM MAL + co-treatment 10 μM, 3 h, irradiation", "result": "46.3±4.0% and 43.8±3.9%"},
      {"measurement": "potentiating effect on MAL photodynamic cell killing", "setting": "A431 cells [1]; summary of Examples 2A, 3A", "result": "mild potentiating effect"},
      {"measurement": "cell viability, percentage of untreated control", "setting": "A431 cells [2]; 1 μM with 1 mM MAL, 3 hours", "result": "97.4±6.9", "unit": "%"},
      {"measurement": "cell viability, percentage of untreated control", "setting": "A431 cells [2]; 5 μM with 1 mM MAL, 3 hours", "result": "99.4±7.3", "unit": "%"},
      {"measurement": "cell viability, percentage of untreated control", "setting": "A431 cells [2]; 10 μM with 1 mM MAL, 3 hours", "result": "98.6±6.2", "unit": "%"},
      {"measurement": "cell viability, percentage of untreated control", "setting": "A431 cells [2]; 25 μM with 1 mM MAL, 3 hours", "result": "79.0±4.3", "unit": "%"},
      {"measurement": "cell viability, percentage of untreated control", "setting": "A431 cells [2]; 50 μM with 1 mM MAL, 3 hours", "result": "57.7±1.4", "unit": "%"},
      {"measurement": "cell viability, percentage of untreated control", "setting": "A431 cells [2]; 50 μM, 24 hours", "result": "11.7±0.8", "unit": "%"},
      {"measurement": "cell viability, percentage of untreated control", "setting": "A431 cells [2]; 100 μM, 24 hours", "result": "14.8±4.2", "unit": "%"},
      {"measurement": "concentration up to which well tolerated / no cytotoxicity", "setting": "A431 cells [2]; 24 hours", "result": "up to 10 μM"},
      {"measurement": "MitoSOX fluorescence, percentage of untreated cells", "setting": "A431 cells [3]", "result": "209.5±3.2", "unit": "%"},
      {"measurement": "inactivation of reduced thioredoxin reductase", "setting": "thioredoxin reductase; 50 nM reduced enzyme, 5 minutes incubation with 100 μM DNCB, presence of NAD(P)H", "result": "Complete inactivation"},
      {"measurement": "inactivation of thioredoxin reductase faster than the alkylation of GSH", "setting": "thioredoxin reductase", "result": "~10,000 fold"}
    ]}
  ]
}
